Measurements from patent publication US10132029B2, “Method for reducing adhesion of microorganisms to fabrics” (priority 2013, dated 2018).
Like-named read-outs stand apart in the source and are kept apart here.

Key:
S. aureus DSMZ 20231 = experiment: Syto9 microtiter plate assay: adhesion of bacteria to coated polyester fabric samples; format: cell-based, Staphylococcus aureus; conditions: for Reduction in adhered bacteria [%]: S. aureus, polyester; for Reduction in adhered bacteria [%] S. aureus: polyester fabric, application concentration 0.1 wt %, commercial product applied directly by padding, relative to uncoated fabric
Procedure: (§1) Circular fabric samples with a diameter of 0.6 cm were punched from coated and uncoated cotton and polyester fabrics. The fabric samples were fixed to a microtiter plate. The fabric samples were washed with acetone and sterilized with UV light for 60 minutes.
(§2) The strains were coated fresh from glycerol bacterial cultures onto tryptic soy agar (TSA). Incubation took place overnight at 33° C. The nutrient medium prepared was a tryptic soy broth (TSB), with 30% of the amount recommended by the manufacturer, supplemented with 0.25% of glucose. […] The nutrient medium was inoculated with the bacterial cultures and after inoculation was cultivated overnight at 37° C. and 160 rpm.
(§3) The resulting overnight cultures were centrifuged at 8500 g for 15 minutes and washed with 50 ml of isotonic saline solution (0.9 wt %). Bacterial suspensions in isotonic saline solutions were prepared. The optical density of the various bacterial suspensions was determined at 595 nm and adjusted to a level of about 1.2.
(§4) 50 μl of the final microorganism suspension in isotonic saline solution (0.9 wt %) prepared as described under 2.2 were added to the coated and uncoated fabric samples fixed on the microtiter plate (see 2.1). The microtiter plates were closed and sealed off with Parafilm. The microtiter plates were placed in an antievaporation box and incubated at 33° C. for 2 h and at 40 rpm. The expected colony-forming unit count (CFU) of the inoculum at the start was 10^6-10^7 CFU/ml.
(§5) After the biofilm had formed, the planctonic cells were removed and used as a sample for determining the optical density at 595 nm. For this purpose, the samples were made up to a volume of 150 μl, and 100 μl were withdrawn for the optical density determination in a photometer. The optical density of the corresponding control solution with sterile isotonic saline solution was subtracted from the optical densities found. Through the determination of the planctonic cells after the formation of biofilm, the amount of bacteria available for adhesion was monitored.
(§6) The fabric samples and the resulting biofilm were washed three times with 200 to 300 μl of isotonic saline solution.
(§7) The fabric samples obtained under 2.4 (after formation of biofilm) were placed together with 100 μl of isotonic saline solution into wells of a 96-well microtiter plate.
(§8) Investigations into the removal of the adhered microorganisms from the fabric surfaces were carried out with vortexing, ultrasound, with enzymatic treatment, or with combinations thereof. Treatment in the vortex amounted to 5 minutes and was performed horizontally. The ultrasound treatment was carried out in an ultrasound bath for 5 minutes. For the enzymatic removal, the fabric samples were treated with enzymes, such as trypsin or a mixture of different enzymes, for example, during incubation at 37° C. for 1 hour.
(§9) Following removal of the adhered bacteria, the fabric samples were removed from the microtiter plates.
(§10) The number of removed bacteria in the resulting suspension was determined by staining with Syto9 and fluorescence measurement (fluorescence filter with excitation at 485/20 nm and emission at 528/20 nm) or by staining with BacTiterGlo and bioluminescence measurement. Furthermore, it is possible to determine the number of adhered and removed microorganisms by means of protein assay (e.g., BCA assay, Bradford Assay) or optical density proliferation assay.
The relative variables (e.g., fluorescence units (RFU)) concerning the coated and uncoated fabrics were compared, allowing the reduction in adhered bacteria in % to be determined in accordance with the following formula: Reduction in adhered bacteria[%]=[(RFUuc−RFUuc)/RFUuc]*100 where • RFUuc=relative fluorescence units of the removed bacteria of the uncoated substrate • RFUc=relative fluorescence units of the removed bacteria of the coated substrate […]

P. aeruginosa DSMZ 1117 = format: cell-based, Pseudomonas aeruginosa; conditions: for Reduction in adhered bacteria [%]: P. aeruginosa, polyester; for Reduction in adhered bacteria [%] P. aeruginosa: polyester fabric, application concentration 0.1 wt %, commercial product applied directly by padding, relative to uncoated fabric
Procedure: as §1, §2, §3, §4
as §5, with “The optical density of the corresponding control solution with sterile isotonic saline solution was subtracted from the optical densities found.” left out
as §6, §7, §8, §9, §10
The relative variables (e.g., fluorescence units (RFU)) concerning the coated and uncoated fabrics were compared, allowing the reduction in adhered bacteria in % to be determined in accordance with the following formula: Reduction in adhered bacteria[%]=[(RFUuc−RFUuc)/RFUuc]*100 where • RFUuc=relative fluorescence units of the removed bacteria of the uncoated substrate • RFUc=relative fluorescence units of the removed bacteria of the coated substrate
The commercial products described in example 1 were applied directly by a padding method to polyester fabric samples.
Bacterial adhesion to the polyester fabric samples was investigated using the microtiter plate Syto9 assay, as described in example 2.

Staphylococcus aureus = experiment: Antimicrobial activity of coated polyester fabric samples as per JIS L 1902; format: cell-based; conditions: for Antimicrobial activity[log] Unwashed: 18 hours at 37° C.
Procedure: The procedure here is that the fabric sample was inoculated with a defined amount of a microbial suspension (inoculum). Test specimens with a weight of approximately 0.4 g were investigated in a triplicate determination.
The inoculated fabric sample was incubated in a closed system at 37° C. over a period of 18 hours. Following incubation, the bacteria of a defined amount of a dilution solution were recorded. The difference in the bacterial count of the fabric sample at 0 hours in comparison to the fabric sample after 18 hours served as a basis for evaluation. The antimicrobial activity is reported as a logarithmic or percentage value. Here, a reduction in the microbe count of 0% corresponds to inadequate antimicrobial action, a microbe reduction in the range from 0.1 to less than 90% to an inadequate antibacterial action, and a microbe reduction of greater than 90% to a good antibacterial action.

[1] = coating concentration 0.001 %, wash pretreatment (A) unwashed
[2] = coating concentration 0.001 %, wash pretreatment (B) washed twice at 30° C. only with water
[3] = coating concentration 0.001 %, wash pretreatment (C) washed once at 30° C. EN ISO 6330 method 8A with ECE B detergent
[4] = coating concentration 0.01 %, wash pretreatment (A) unwashed
[5] = coating concentration 0.01 %, wash pretreatment (B) washed twice at 30° C. only with water
[6] = coating concentration 0.01 %, wash pretreatment (C) washed once at 30° C. EN ISO 6330 method 8A with ECE B detergent
[7] = coating concentration 0.1 %, wash pretreatment (A) unwashed
[8] = coating concentration 0.1 %, wash pretreatment (B) washed twice at 30° C. only with water
[9] = coating concentration 0.1 %, wash pretreatment (C) washed once at 30° C. EN ISO 6330 method 8A with ECE B detergent
[10] = coating concentration 0.001 % based on fabric
[11] = coating concentration 0.01 % based on fabric
[12] = coating concentration 0.1 % based on fabric

Compound | Reduction in adhered bacteria [%] (S. aureus DSMZ 20231; [1]) | Reduction in adhered bacteria [%] (S. aureus DSMZ 20231; [2]) | Reduction in adhered bacteria [%] (S. aureus DSMZ 20231; [3]) | Reduction in adhered bacteria [%] (S. aureus DSMZ 20231; [4]) | Reduction in adhered bacteria [%] (S. aureus DSMZ 20231; [5]) | Reduction in adhered bacteria [%] (S. aureus DSMZ 20231; [6]) | Reduction in adhered bacteria [%] (S. aureus DSMZ 20231; [7]) | Reduction in adhered bacteria [%] (S. aureus DSMZ 20231; [8]) | Reduction in adhered bacteria [%] (S. aureus DSMZ 20231; [9]) | Reduction in adhered bacteria [%] S. aureus (S. aureus DSMZ 20231) [%] | Reduction in adhered bacteria [%] (P. aeruginosa DSMZ 1117; [1]) | Reduction in adhered bacteria [%] (P. aeruginosa DSMZ 1117; [2]) | Reduction in adhered bacteria [%] (P. aeruginosa DSMZ 1117; [3]) | Reduction in adhered bacteria [%] (P. aeruginosa DSMZ 1117; [4]) | Reduction in adhered bacteria [%] (P. aeruginosa DSMZ 1117; [5]) | Reduction in adhered bacteria [%] (P. aeruginosa DSMZ 1117; [6]) | Reduction in adhered bacteria [%] (P. aeruginosa DSMZ 1117; [7]) | Reduction in adhered bacteria [%] (P. aeruginosa DSMZ 1117; [8]) | Reduction in adhered bacteria [%] (P. aeruginosa DSMZ 1117; [9]) | Reduction in adhered bacteria [%] P. aeruginosa (P. aeruginosa DSMZ 1117) [%] | also measured
CO[Si](CCCN(CCN(CC(=O)[O-])CC(=O)[O-])CC(=O)[O-])(OC)OC.[Na+].[Na+].[Na+] [S5, N-(trimethoxysilylpropyl)ethylenediaminetriacetyl acid, trisodium salt] | 69 | 59 | 75 | 44 | 22 | 53 | 72 | 68 | 38 | 46 | 81 | 42 | 77 | 78 | 54 | 73 | 68 | 69 | 67 | 17 | Antimicrobial activity[log] Unwashed (Staphylococcus aureus; [10]): 0.5 log; Antimicrobial activity[log] Washed once at 30° C., without detergent (Staphylococcus aureus; [10]): −0.3 log; Antimicrobial activity[log] Washed twice with water (Staphylococcus aureus; [10]): 0.9 log; Antimicrobial activity[log] Unwashed (Staphylococcus aureus; [11]): −0.3 log; Antimicrobial activity[log] Washed once at 30° C., without detergent (Staphylococcus aureus; [11]): −0.6 log; Antimicrobial activity[log] Washed twice with water (Staphylococcus aureus; [11]): −0.2 log; Antimicrobial activity[log] Unwashed (Staphylococcus aureus; [12]): −0.5 log; Antimicrobial activity[log] Washed once at 30° C., without detergent (Staphylococcus aureus; [12]): −0.6 log; Antimicrobial activity[log] Washed twice with water (Staphylococcus aureus; [12]): −0.4 log
N-(triethoxysilylpropyl)-O-polyethylene oxide-urethane, (4-6 EO units) [S3] | 57 | 54 | 69 | 63 | 34 | 58 | 47 | 46 | 61 | 55 | 63 | 46 | 69 | 65 | 37 | 71 | 85 | 36 | 76 | 48 | Antimicrobial activity[log] Unwashed (Staphylococcus aureus; [10]): −0.5 log; Antimicrobial activity[log] Washed once at 30° C., without detergent (Staphylococcus aureus; [10]): −0.8 log; Antimicrobial activity[log] Washed twice with water (Staphylococcus aureus; [10]): −0.3 log; Antimicrobial activity[log] Unwashed (Staphylococcus aureus; [11]): −0.1 log; Antimicrobial activity[log] Washed once at 30° C., without detergent (Staphylococcus aureus; [11]): −0.1 log; Antimicrobial activity[log] Washed twice with water (Staphylococcus aureus; [11]): 0.8 log; Antimicrobial activity[log] Unwashed (Staphylococcus aureus; [12]): 0.0 log; Antimicrobial activity[log] Washed once at 30° C., without detergent (Staphylococcus aureus; [12]): −0.4 log; Antimicrobial activity[log] Washed twice with water (Staphylococcus aureus; [12]): 0.3 log
